Assay results: paper PMC5218480 (PLoS ONE, 2017)

System: MV-4-11 cells
Assay: Gene expression microarray analysis (Affymetrix PrimeView) and GSEA
Type: cell-based, human
Set-up: RFU PODN (11730768_x_at) / Fold change /veh PODN (11730768_x_at) / RFU LINC00158 (11744669_a_at) / Fold change /veh LINC00158 (11744669_a_at) / RFU DUSP10 (11751237_a_at) / Fold change /veh DUSP10 (11751237_a_at) / RFU ID3 (11757404_x_at) / Fold change /veh ID3 (11757404_x_at) / RFU PLEKHG5 (11737974_s_at) / Fold change /veh PLEKHG5 (11737974_s_at) / RFU LRRC4B (11730491_at) / Fold change /veh LRRC4B (11730491_at) / RFU GIMAP4 (11747438_a_at) / Fold change /veh GIMAP4 (11747438_a_at) / RFU KRT8 (11758183_x_at) / Fold change /veh KRT8 (11758183_x_at) / RFU CNN1 (11734310_a_at) / Fold change /veh CNN1 (11734310_a_at) / RFU VPS37D (11726825_at) / Fold change /veh VPS37D (11726825_at) / RFU C10orf10 (11716522_x_at) / Fold change /veh C10orf10 (11716522_x_at) / RFU KIR2DL2 /// KIR2DL4 /// KIR2DL5A /// KIR2DL5B /// KIR2DS1 /// KIR2DS2 /// KIR2DS3 /// KIR2DS4 /// KIR3DL3 /// KIR3DL3 /// KIR3DS1 (11738374_at) / Fold change /veh KIR2DL2 /// KIR2DL4 /// KIR2DL5A /// KIR2DL5B /// KIR2DS1 /// KIR2DS2 /// KIR2DS3 /// KIR2DS4 /// KIR3DL3 /// KIR3DL3 /// KIR3DS1 (11738374_at) / RFU C1QL1 (11718748_at) / Fold change /veh C1QL1 (11718748_at) / RFU TMPRSS4 (11747572_a_at) / Fold change /veh TMPRSS4 (11747572_a_at) / RFU HAMP (11756126_x_at) / Fold change /veh HAMP (11756126_x_at) / RFU RNFT2 (11725882_a_at) / Fold change /veh RNFT2 (11725882_a_at) / RFU NR4A2 (11747474_a_at) / Fold change /veh NR4A2 (11747474_a_at) / RFU ABCC12 (11746883_a_at) / Fold change /veh ABCC12 (11746883_a_at) / RFU TMEM136 (11760407_x_at) / Fold change /veh TMEM136 (11760407_x_at) / RFU CLDN22 /// WWC2 (11732394_at) / Fold change /veh CLDN22 /// WWC2 (11732394_at) / RFU HLA-DPB1 (11760878_x_at) / Fold change /veh HLA-DPB1 (11760878_x_at) / RFU SPINT1 (11716480_a_at) / Fold change /veh SPINT1 (11716480_a_at) / RFU GAP43 (11754022_s_at) / Fold change /veh GAP43 (11754022_s_at) / RFU A4GNT (11735810_at) / Fold change /veh A4GNT (11735810_at) / RFU PRB3 (11715151_x_at) / Fold change /veh PRB3 (11715151_x_at) / RFU TUBB4B (11761932_at) / Fold change /veh TUBB4B (11761932_at) / RFU CAPN14 (11732068_a_at) / Fold change /veh CAPN14 (11732068_a_at) / RFU TMCC2 (11721928_a_at) / Fold change /veh TMCC2 (11721928_a_at) / RFU IRGQ (11745062_a_at) / Fold change /veh IRGQ (11745062_a_at) / RFU FAM174B (11720279_a_at) / Fold change /veh FAM174B (11720279_a_at) / RFU TMPRSS4 (11748680_a_at) / Fold change /veh TMPRSS4 (11748680_a_at) / RFU FAM212B (11763350_a_at) / Fold change /veh FAM212B (11763350_a_at) / RFU PLEKHG5 (11743358_a_at) / Fold change /veh PLEKHG5 (11743358_a_at) / RFU ZSCAN30 (11745921_a_at) / Fold change /veh ZSCAN30 (11745921_a_at) / RFU CMKLR1 (11741424_a_at) / Fold change /veh CMKLR1 (11741424_a_at) / RFU LOC101060620 /// MAPK8IP1 (11723275_at) / Fold change /veh LOC101060620 /// MAPK8IP1 (11723275_at) / RFU SPTSSB (11747773_x_at) / Fold change /veh SPTSSB (11747773_x_at) / RFU PRSS12 (11739890_at) / Fold change /veh PRSS12 (11739890_at) / RFU BIN1 (11741810_x_at) / Fold change /veh BIN1 (11741810_x_at) / RFU WNT11 (11732464_a_at) / Fold change /veh WNT11 (11732464_a_at) / RFU C10orf10 (11716521_a_at) / Fold change /veh C10orf10 (11716521_a_at) / RFU C5orf56 (11738089_at) / Fold change /veh C5orf56 (11738089_at) / RFU CYB561 (11721691_x_at) / Fold change /veh CYB561 (11721691_x_at) / RFU ANKRD19P (11752326_a_at) / Fold change /veh ANKRD19P (11752326_a_at) / RFU OR2T12 /// OR2T33 /// OR2T8 (11738714_s_at) / Fold change /veh OR2T12 /// OR2T33 /// OR2T8 (11738714_s_at) / RFU VCAN (11748164_a_at) / Fold change /veh VCAN (11748164_a_at) / RFU JSRP1 (11732532_at) / Fold change /veh JSRP1 (11732532_at) / RFU KRTAP10-11 (11738290_x_at) / Fold change /veh KRTAP10-11 (11738290_x_at) / RFU MYO3A (11730013_a_at) / Fold change /veh MYO3A (11730013_a_at) / RFU EBF3 (11725865_a_at) / Fold change /veh EBF3 (11725865_a_at) / RFU CAMK2N1 (11719241_x_at) / Fold change /veh CAMK2N1 (11719241_x_at) / RFU C5orf56 (11738088_a_at) / Fold change /veh C5orf56 (11738088_a_at) / RFU OLFML3 (11715873_a_at) / Fold change /veh OLFML3 (11715873_a_at) / RFU LOC100653217 /// NTM (11731650_a_at) / Fold change /veh LOC100653217 /// NTM (11731650_a_at) / RFU MAPK11 (11762145_a_at) / Fold change /veh MAPK11 (11762145_a_at) / RFU FIZ1 (11724087_x_at) / Fold change /veh FIZ1 (11724087_x_at) / RFU OASL (11726364_x_at) / Fold change /veh OASL (11726364_x_at) / RFU SOX15 (11748057_x_at) / Fold change /veh SOX15 (11748057_x_at) / RFU CD79A (11719716_a_at) / Fold change /veh CD79A (11719716_a_at) / RFU HIST1H1D (11736915_at) / Fold change /veh HIST1H1D (11736915_at) / RFU CASKIN2 (11723855_a_at) / Fold change /veh CASKIN2 (11723855_a_at) / RFU LOC730098 (11760151_x_at) / Fold change /veh LOC730098 (11760151_x_at) / RFU OR4N2 (11742367_at) / Fold change /veh OR4N2 (11742367_at) / RFU PRRT2 (11749266_a_at) / Fold change /veh PRRT2 (11749266_a_at) / RFU SNX32 (11753110_a_at) / Fold change /veh SNX32 (11753110_a_at) / RFU CDHR5 (11726645_a_at) / Fold change /veh CDHR5 (11726645_a_at) / RFU RCAN1 (11760418_a_at) / Fold change /veh RCAN1 (11760418_a_at) / RFU FAM167A (11723789_a_at) / Fold change /veh FAM167A (11723789_a_at) / RFU FAM26E (11764081_at) / Fold change /veh FAM26E (11764081_at) / RFU ISYNA1 (11749810_s_at) / Fold change /veh ISYNA1 (11749810_s_at) / RFU ACY1 (11761880_at) / Fold change /veh ACY1 (11761880_at) / RFU 11764098_at / Fold change /veh 11764098_at / RFU SAMD14 (11745864_x_at) / Fold change /veh SAMD14 (11745864_x_at) / RFU NPB (11741838_a_at) / Fold change /veh NPB (11741838_a_at) / RFU TMPRSS6 (11731388_a_at) / Fold change /veh TMPRSS6 (11731388_a_at) / RFU KRTAP10-2 (11738614_at) / Fold change /veh KRTAP10-2 (11738614_at) / RFU ARHGAP8 /// PRR5-ARHGAP8 (11727945_x_at) / Fold change /veh ARHGAP8 /// PRR5-ARHGAP8 (11727945_x_at) / RFU KRTAP5-7 /// NADSYN1 (11734609_at) / Fold change /veh KRTAP5-7 /// NADSYN1 (11734609_at) / RFU RASL12 (11751679_a_at) / Fold change /veh RASL12 (11751679_a_at) / RFU CDKN2B (11736163_a_at) / Fold change /veh CDKN2B (11736163_a_at) / RFU PRF1 (11729649_at) / Fold change /veh PRF1 (11729649_at) / RFU, ZNF638 /// ZNF638-IT1 / Fold change vs veh, ZNF638 /// ZNF638-IT1 / RFU, PANK3 / Fold change vs veh, PANK3 / RFU, SH3YL1 / Fold change vs veh, SH3YL1 / RFU, ZEB2 / Fold change vs veh, ZEB2 / RFU, NRIP1 / Fold change vs veh, NRIP1 / RFU, PTTG1IP / Fold change vs veh, PTTG1IP / RFU, CAPN2 / Fold change vs veh, CAPN2 / RFU, MED14 / Fold change vs veh, MED14 / RFU, SNORA58 / Fold change vs veh, SNORA58 / RFU, C1orf63 / Fold change vs veh, C1orf63 / RFU, LRRFIP1 / Fold change vs veh, LRRFIP1 / RFU, NDUFAF7 / Fold change vs veh, NDUFAF7 / RFU, SLC12A2 / Fold change vs veh, SLC12A2 / RFU, IBTK / Fold change vs veh, IBTK / RFU, ESF1 / Fold change vs veh, ESF1 / Fold change vs veh, TMEM50B / RFU, TAOK1 / Fold change vs veh, TAOK1 / RFU, ACBD3 / Fold change vs veh, ACBD3 / RFU, TMA16 / Fold change vs veh, TMA16 / RFU, RWDD3 / Fold change vs veh, RWDD3 / RFU, BCAT1 / Fold change vs veh, BCAT1 / RFU, EDEM3 / Fold change vs veh, EDEM3 / RFU, TMEM33 / Fold change vs veh, TMEM33 / RFU, WDR75 / Fold change vs veh, WDR75 / RFU, AHCTF1 / Fold change vs veh, AHCTF1 / RFU, TFRC / Fold change vs veh, TFRC / RFU, ZDHHC17 / Fold change vs veh, ZDHHC17 / RFU, NOM1 / Fold change vs veh, NOM1 / RFU, ARL8B / Fold change vs veh, ARL8B / RFU, ZBTB11 / Fold change vs veh, ZBTB11 / RFU, TAMM41 / Fold change vs veh, TAMM41 / RFU, KIAA1704 /// LOC100996395 / Fold change vs veh, KIAA1704 /// LOC100996395 / RFU, ING1 / Fold change vs veh, ING1 / RFU, TRMT61B / Fold change vs veh, TRMT61B / RFU, FUBP3 / Fold change vs veh, FUBP3 / RFU, TP53 / Fold change vs veh, TP53 / RFU, TNKS2 / Fold change vs veh, TNKS2 / RFU, ZFP14 / Fold change vs veh, ZFP14 / RFU, ACTR2 / Fold change vs veh, ACTR2 / RFU, PPP3R1 / Fold change vs veh, PPP3R1 / RFU, PIK3R1 / Fold change vs veh, PIK3R1 / RFU, HNRNPA1 / Fold change vs veh, HNRNPA1 / RFU, RNF170 / Fold change vs veh, RNF170 / RFU, ZNF28 / Fold change vs veh, ZNF28 / RFU, RNGTT / Fold change vs veh, RNGTT / RFU, OGT / Fold change vs veh, OGT / RFU, BRD1 / Fold change vs veh, BRD1 / RFU, MARS / Fold change vs veh, MARS / RFU, ZNF655 / Fold change vs veh, ZNF655 / RFU, FAHD1 / Fold change vs veh, FAHD1 / RFU, BDP1 / Fold change vs veh, BDP1 / RFU, LRRCC1 / Fold change vs veh, LRRCC1 / RFU, ARID1A / Fold change vs veh, ARID1A / RFU, ZNF146 / Fold change vs veh, ZNF146 / RFU, ZNF330 / Fold change vs veh, ZNF330 / RFU, GPN3 / Fold change vs veh, GPN3 / RFU, C9orf123 / Fold change vs veh, C9orf123 / RFU, N4BP2L2 / Fold change vs veh, N4BP2L2 / RFU, ARFIP1 / Fold change vs veh, ARFIP1 / RFU, FAM179B / Fold change vs veh, FAM179B / RFU, BCL10 / Fold change vs veh, BCL10 / RFU, UHRF1BP1L / Fold change vs veh, UHRF1BP1L / RFU, BET1 / Fold change vs veh, BET1 / RFU, CNOT2 / Fold change vs veh, CNOT2 / RFU, ZNF268 / Fold change vs veh, ZNF268 / Fold change vs veh, ZNF507 / RFU, DGCR2 / Fold change vs veh, DGCR2 / RFU, WDSUB1 / Fold change vs veh, WDSUB1 / Fold change vs veh, HSP90B1 /// MIR3652 / RFU, ADSS / Fold change vs veh, ADSS / RFU, GK / Fold change vs veh, GK / RFU, ZNF148 / Fold change vs veh, ZNF148 / RFU, TAF9 / Fold change vs veh, TAF9 / RFU, SLC1A5 / Fold change vs veh, SLC1A5 / RFU, SLMO2 / Fold change vs veh, SLMO2 / RFU, ABCC4 / Fold change vs veh, ABCC4 / RFU, LOC101060439 /// RAP1B / Fold change vs veh, LOC101060439 /// RAP1B / RFU, RFX7 / Fold change vs veh, RFX7 / RFU, GTPBP10 / Fold change vs veh, GTPBP10 / RFU, CNEP1R1 / Fold change vs veh, CNEP1R1 / RFU, BIVM-ERCC5 /// ERCC5 / Fold change vs veh, BIVM-ERCC5 /// ERCC5 / RFU, ILF3 / Fold change vs veh, ILF3 / RFU 11762660_at / Fold change /veh 11762660_at / RFU VCAN (11757783_s_at) / Fold change /veh VCAN (11757783_s_at) / RFU DDX43 (11728927_at) / Fold change /veh DDX43 (11728927_at) / RFU KRT8 (11758188_x_at) / Fold change /veh KRT8 (11758188_x_at) / RFU NKD1 (11759106_at) / Fold change /veh NKD1 (11759106_at) / RFU SRD5A1 (11742802_a_at) / Fold change /veh SRD5A1 (11742802_a_at) / RFU TPSAB1 /// TPSB2 (11721975_s_at) / Fold change /veh TPSAB1 /// TPSB2 (11721975_s_at) / RFU GSTM3 (11746129_a_at) / Fold change /veh GSTM3 (11746129_a_at) / RFU IL23R (11737362_x_at) / Fold change /veh IL23R (11737362_x_at) / RFU TMEM51 (11727254_a_at) / Fold change /veh TMEM51 (11727254_a_at) / RFU PIWIL2 (11732686_x_at) / Fold change /veh PIWIL2 (11732686_x_at) / RFU ORM1 (11744905_x_at) / Fold change /veh ORM1 (11744905_x_at) / RFU CCDC152 (11743942_at) / Fold change /veh CCDC152 (11743942_at) / RFU ECM1 (11717891_a_at) / Fold change /veh ECM1 (11717891_a_at) / RFU IL23R (11748794_a_at) / Fold change /veh IL23R (11748794_a_at) / RFU TNFAIP8L3 (11732012_x_at) / Fold change /veh TNFAIP8L3 (11732012_x_at) / RFU MBOAT4 (11741988_at) / Fold change /veh MBOAT4 (11741988_at) / RFU 11764193_at / Fold change /veh 11764193_at / RFU TMEM53 (11763286_at) / Fold change /veh TMEM53 (11763286_at) / RFU MAGEB2 (11727129_at) / Fold change /veh MAGEB2 (11727129_at) / RFU TMEM200A (11744735_a_at) / Fold change /veh TMEM200A (11744735_a_at) / RFU CCDC152 (11751479_a_at) / Fold change /veh CCDC152 (11751479_a_at) / RFU FAM211A (11726209_a_at) / Fold change /veh FAM211A (11726209_a_at) / RFU RGS16 (11746705_a_at) / Fold change /veh RGS16 (11746705_a_at) / RFU VCAN (11755009_s_at) / Fold change /veh VCAN (11755009_s_at) / RFU RHOB (11743442_s_at) / Fold change /veh RHOB (11743442_s_at) / RFU RGS16 (11720943_a_at) / Fold change /veh RGS16 (11720943_a_at) / RFU RGS16 (11720944_at) / Fold change /veh RGS16 (11720944_at) / RFU, VPS4B / Fold change vs veh, VPS4B / RFU, CREB1 / Fold change vs veh, CREB1 / RFU, DNAJC13 / Fold change vs veh, DNAJC13 / RFU, GNAQ / Fold change vs veh, GNAQ / RFU, CDK5R1 / Fold change vs veh, CDK5R1 / RFU, ZRANB3 / Fold change vs veh, ZRANB3 / RFU, CUL4A / Fold change vs veh, CUL4A / RFU, CCNY / Fold change vs veh, CCNY / RFU, UFL1 / Fold change vs veh, UFL1 / RFU, COG3 / Fold change vs veh, COG3 / RFU, DIAPH2 / Fold change vs veh, DIAPH2 / RFU, SKA2 / Fold change vs veh, SKA2 / RFU, AFF3 / Fold change vs veh, AFF3 / RFU, LMF1 / Fold change vs veh, LMF1 / RFU, IPO11 / Fold change vs veh, IPO11 / RFU, DFFB / Fold change vs veh, DFFB / RFU, FOXP1 / Fold change vs veh, FOXP1 / RFU, CARD8 / Fold change vs veh, CARD8 / RFU, STRN3 / Fold change vs veh, STRN3 / RFU, ADK / Fold change vs veh, ADK / RFU, RASSF2 / Fold change vs veh, RASSF2 / RFU, WIPF1 / Fold change vs veh, WIPF1 / RFU, LARP1B / Fold change vs veh, LARP1B / RFU, RASA1 / Fold change vs veh, RASA1 / RFU, RB1 / Fold change vs veh, RB1 / RFU, PPFIA1 / Fold change vs veh, PPFIA1 / RFU, MAT2A / Fold change vs veh, MAT2A / RFU, CCT5 / Fold change vs veh, CCT5 / RFU, WDR92 / Fold change vs veh, WDR92 / RFU, CUX1 / Fold change vs veh, CUX1 / RFU, TTC7A / Fold change vs veh, TTC7A / RFU, TMEM135 / Fold change vs veh, TMEM135 / RFU, DEPTOR / Fold change vs veh, DEPTOR / RFU, CPM / Fold change vs veh, CPM / RFU, DNAJB6 / Fold change vs veh, DNAJB6 / RFU, CACNA2D3 / Fold change vs veh, CACNA2D3 / RFU, DTX4 / Fold change vs veh, DTX4 / RFU, TFCP2 / Fold change vs veh, TFCP2 / RFU, GMCL1 /// GMCL1P1 / Fold change vs veh, GMCL1 /// GMCL1P1 / RFU, AEBP2 / Fold change vs veh, AEBP2 / RFU, SNHG1 /// SNORD22 /// SNORD25 /// SNORD26 /// SNORD27 /// SNORD28 /// SNORD29 /// SNORD31 / Fold change vs veh, SNHG1 /// SNORD22 /// SNORD25 /// SNORD26 /// SNORD27 /// SNORD28 /// SNORD29 /// SNORD31 / Fold change (Aza/veh), C12orf56 (ProbeSet 11735607_a_at) / Fold change (ACY-1035/veh), C12orf56 (ProbeSet 11735607_a_at) / Fold change (Aza/veh), FGFR1OP (ProbeSet 11751329_s_at) / Fold change (ACY-1035/veh), FGFR1OP (ProbeSet 11751329_s_at) / Fold change (Aza/veh), VPS36 (ProbeSet 11739960_a_at) / Fold change (ACY-1035/veh), VPS36 (ProbeSet 11739960_a_at) / RFU SYPL1 (11715823_x_at) / Fold change /veh SYPL1 (11715823_x_at) / RFU IGFBP7 (11715501_s_at) / Fold change /veh IGFBP7 (11715501_s_at) / RFU REEP3 (11722064_at) / Fold change /veh REEP3 (11722064_at) / RFU IGLL1 (11728026_x_at) / Fold change /veh IGLL1 (11728026_x_at): dose or concentration left out as unconfirmed
Conditions: ProbeSet 11729173_a_at; LIST D

Nc1ccc(-c2cccs2)cc1NC(=O)c1ccc2c(c1)cc(C1CC1)n2CCN1CCOCC1 [ACY-1035]
RFU, SKA2: 338.69 RFU
